Each structure is given as a SMILES string. Structures can show the parent of a compound that is named as a salt.

From patent publication US20230116114A1, “COMPOUNDS AND COMPOSITIONS FOR TREATING CNS DISORDERS” (Blue Oak Pharmaceuticals, Inc., priority 2020, published 2023) come the findings set out here.

In this test the test system is mice. Put plainly: SmartCube in vivo neuropharmacological behavioral assay. The conditions noted are these: for minimal effective dose: Mus musculus, ip, 0.25 h, dose having 50% or more total activity in SmartCube, i.p., read-out: MED (minimal effective dose); for AD: antidepressant (percent probability) / AG: analgesic (percent probability) / AP: antipsychotic (percent probability) / AX: anxiolytic (percent probability) / CE: cognitive enhancer (percent probability) / HA: hallucinogenic (percent probability) / MS: mood stabilizer (percent probability) / PS (percent probability) / SD: sedative hypnotic (percent probability) / SE: side effects (percent probability) / UN: uncharacterized CNS activity (percent probability) / XG: anxiogenic (percent probability): SmartCube, i.p. 15 min before test, result at the MED. The procedure, abridged: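 Mice dosed i.p. in NMP (Pharmasolve) 15 min before automated video behavioral testing at several doses (e.g., 0.3-30 mpk). Signatures compared to reference drug classes giving per-class probabilities (0-100); MED is the lowest dose with ≥50% total activity.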

As for `CCCC(C)N1C2CCCC1c1ccccc12` (stereo not drawn) [Compound 16, 12-(Pentan-2-yl)-12-azatricyclo[6.3.1.0^20.7]dodeca-2,4,6-triene hydrochloride], the minimal effective dose is 10 to 30 mg/kg, the “AD: antidepressant (percent probability)” value is recorded as “+++ (25% ≤ X < 50%)”, the “AG: analgesic (percent probability)” value is listed as “++ (5% ≤ X < 25%)” and the “AP: antipsychotic (percent probability)” value is listed as “+ (LOQ ≤ X < 5%)”. The “AX: anxiolytic (percent probability)” value was “++ (5% ≤ X < 25%)”, the “CE: cognitive enhancer (percent probability)” value is “+ (LOQ ≤ X < 5%)”, the “HA: hallucinogenic (percent probability)” value is on record as “++ (5% ≤ X < 25%)” and the “MS: mood stabilizer (percent probability)” value (“MS … (percent probability)” below) is reported as “+ (LOQ ≤ X < 5%)”. In addition, the “PS (percent probability)” value was “+ (LOQ ≤ X < 5%)”, the “SD: sedative hypnotic (percent probability)” value (“SD … (percent probability)” below) is given as “+ (LOQ ≤ X < 5%)”, the “SE: side effects (percent probability)” value is given as “+ (LOQ ≤ X < 5%)” and the “UN: uncharacterized CNS activity (percent probability)” value (“UN … (percent probability)” below) is “++ (5% ≤ X < 25%)”. Further, the “XG: anxiogenic (percent probability)” value is given as “+ (LOQ ≤ X < 5%)”.

For `CCC(CC)N1C2CCCC1c1ccccc12` [Compound 17, 12-(Pentan-3-yl)-12-azatricyclo[6.3.1.0^2,7]dodeca-2,4,6-trienehydrochloride], the minimal effective dose is 10 to 30 mg/kg, the “AD: antidepressant (percent probability)” value is on record as “++ (5% ≤ X < 25%)”, the “AG: analgesic (percent probability)” value is listed as “+ (LOQ ≤ X < 5%)” and the “AP: antipsychotic (percent probability)” value is listed as “+ (LOQ ≤ X < 5%)”. Moreover, the “AX: anxiolytic (percent probability)” value was “++ (5% ≤ X < 25%)”, the “CE: cognitive enhancer (percent probability)” value is recorded as “+ (LOQ ≤ X < 5%)”, the “HA: hallucinogenic (percent probability)” value is recorded as “+ (LOQ ≤ X < 5%)” and the “MS … (percent probability)” value was “+ (LOQ ≤ X < 5%)”. Also, the “PS (percent probability)” value was “++++ (50% ≤ X < 100%)”, the “SD … (percent probability)” value was “+ (LOQ ≤ X < 5%)”, the “SE: side effects (percent probability)” value is on record as “+ (LOQ ≤ X < 5%)” and the “UN … (percent probability)” value is “+ (LOQ ≤ X < 5%)”. Also, the “XG: anxiogenic (percent probability)” value is listed as “+ (LOQ ≤ X < 5%)”.

With `COCC(C)N1C2CCCC1c1ccccc12` (stereo not drawn) [Compound 18, 12-(1-Methoxypropan-2-yl)-12-azatricyclo[6.3.1.0^2,7]dodeca-2,4,6-triene], the minimal effective dose was 10 to 30 mg/kg, the “AD: antidepressant (percent probability)” value is on record as “++++ (50% ≤ X < 100%)”, the “AG: analgesic (percent probability)” value is reported as “+ (LOQ ≤ X < 5%)” and the “AP: antipsychotic (percent probability)” value is reported as “+ (LOQ ≤ X < 5%)”. Besides, the “AX: anxiolytic (percent probability)” value was “++ (5% ≤ X < 25%)”, the “CE: cognitive enhancer (percent probability)” value is reported as “+ (LOQ ≤ X < 5%)”, the “HA: hallucinogenic (percent probability)” value is listed as “+ (LOQ ≤ X < 5%)” and the “MS … (percent probability)” value is recorded as “+ (LOQ ≤ X < 5%)”. In addition, the “PS (percent probability)” value is given as “+ (LOQ ≤ X < 5%)”, the “SD … (percent probability)” value is reported as “+ (LOQ ≤ X < 5%)”, the “SE: side effects (percent probability)” value is “+ (LOQ ≤ X < 5%)” and the “UN … (percent probability)” value was “+ (LOQ ≤ X < 5%)”. For the same compound, the “XG: anxiogenic (percent probability)” value is on record as “+ (LOQ ≤ X < 5%)”.

With `CC(CF)N1C2CCCC1c1ccccc12` (stereo not drawn) [Compound 19, 12-(1-Fluoropropan-2-yl)-12-azatricyclo[6.3.1.0^2,7]dodeca-2,4,6-triene hydrochloride], the minimal effective dose lay in the range of 10 to 30 mg/kg, the “AD: antidepressant (percent probability)” value was “++ (5% ≤ X < 25%)”, the “AG: analgesic (percent probability)” value is listed as “+ (LOQ ≤ X < 5%)” and the “AP: antipsychotic (percent probability)” value is on record as “+ (LOQ ≤ X < 5%)”. Moreover, the “AX: anxiolytic (percent probability)” value was “++++ (50% ≤ X < 100%)”, the “CE: cognitive enhancer (percent probability)” value was “+ (LOQ ≤ X < 5%)”, the “HA: hallucinogenic (percent probability)” value is reported as “+ (LOQ ≤ X < 5%)” and the “MS … (percent probability)” value is recorded as “+ (LOQ ≤ X < 5%)”. Further, the “PS (percent probability)” value is reported as “+ (LOQ ≤ X < 5%)”, the “SD … (percent probability)” value was “+ (LOQ ≤ X < 5%)”, the “SE: side effects (percent probability)” value was “+ (LOQ ≤ X < 5%)” and the “UN … (percent probability)” value is reported as “+ (LOQ ≤ X < 5%)”. In addition, the “XG: anxiogenic (percent probability)” value is “+ (LOQ ≤ X < 5%)”.

Turning to `CC(C1CC1)N1C2CCCC1c1ccccc12` (stereo not drawn) [Compound 21, 12-(1-Cyclopropylethyl)-12-azatricyclo[6.3.1.0]dodeca-2,4,6-triene hydrochloride], the minimal effective dose is 0.1 to 1 mg/kg, the “AD: antidepressant (percent probability)” value was “+++ (25% ≤ X < 50%)”, the “AG: analgesic (percent probability)” value is listed as “++ (5% ≤ X < 25%)” and the “AP: antipsychotic (percent probability)” value was “+ (LOQ ≤ X < 5%)”. Moreover, the “AX: anxiolytic (percent probability)” value was “++ (5% ≤ X < 25%)”, the “CE: cognitive enhancer (percent probability)” value is “+ (LOQ ≤ X < 5%)”, the “HA: hallucinogenic (percent probability)” value is recorded as “+ (LOQ ≤ X < 5%)” and the “MS … (percent probability)” value is “+ (LOQ ≤ X < 5%)”. The “PS (percent probability)” value is “+ (LOQ ≤ X < 5%)”, the “SD … (percent probability)” value is on record as “+ (LOQ ≤ X < 5%)”, the “SE: side effects (percent probability)” value is given as “+ (LOQ ≤ X < 5%)” and the “UN … (percent probability)” value was “+ (LOQ ≤ X < 5%)”. Moreover, the “XG: anxiogenic (percent probability)” value was “+ (LOQ ≤ X < 5%)”.

As to `CC(C)C(C)N1C2CCCC1c1ccccc12` (stereo not drawn) [Compound 22, 12-(3-Methylbutan-2-yl)-12-azatricyclo[6.3.1.0^2,7]dodeca-2,4,6-triene hydrochloride], the minimal effective dose was in the range of 1 to 10 mg/kg, the “AD: antidepressant (percent probability)” value was “++ (5% ≤ X < 25%)”, the “AG: analgesic (percent probability)” value was “+ (LOQ ≤ X < 5%)” and the “AP: antipsychotic (percent probability)” value is “+ (LOQ ≤ X < 5%)”. Also, the “AX: anxiolytic (percent probability)” value was “+ (LOQ ≤ X < 5%)”, the “CE: cognitive enhancer (percent probability)” value was “+ (LOQ ≤ X < 5%)”, the “HA: hallucinogenic (percent probability)” value was “+ (LOQ ≤ X < 5%)” and the “MS … (percent probability)” value was “+ (LOQ ≤ X < 5%)”. The “PS (percent probability)” value is “+ (LOQ ≤ X < 5%)”, the “SD … (percent probability)” value was “+ (LOQ ≤ X < 5%)”, the “SE: side effects (percent probability)” value was “+ (LOQ ≤ X < 5%)” and the “UN … (percent probability)” value is given as “++++ (50% ≤ X < 100%)”. Also, the “XG: anxiogenic (percent probability)” value was “+ (LOQ ≤ X < 5%)”.

Consider `CC[C@@H](C)N1C2CCCC1c1ccccc12` [Compound 25, 12-[(2R)-Butan-2-yl]-12-azatricyclo[6.3.1.0^2,7]dodeca-2,4,6-triene hydrochloride], for which the minimal effective dose fell in the range of 1 to 10 mg/kg, the “AD: antidepressant (percent probability)” value is “++++ (50% ≤ X < 100%)”, the “AG: analgesic (percent probability)” value is reported as “+ (LOQ ≤ X < 5%)” and the “AP: antipsychotic (percent probability)” value is given as “+ (LOQ ≤ X < 5%)”. Also, the “AX: anxiolytic (percent probability)” value is on record as “+ (LOQ ≤ X < 5%)”, the “CE: cognitive enhancer (percent probability)” value is on record as “+ (LOQ ≤ X < 5%)”, the “HA: hallucinogenic (percent probability)” value is “+ (LOQ ≤ X < 5%)” and the “MS … (percent probability)” value was “+ (LOQ ≤ X < 5%)”. For the same compound, the “PS (percent probability)” value is reported as “++ (5% ≤ X < 25%)”, the “SD … (percent probability)” value was “+ (LOQ ≤ X < 5%)”, the “SE: side effects (percent probability)” value is recorded as “+ (LOQ ≤ X < 5%)” and the “UN … (percent probability)” value was “+ (LOQ ≤ X < 5%)”. The “XG: anxiogenic (percent probability)” value is on record as “+ (LOQ ≤ X < 5%)”.

In the case of `CC[C@H](C)N1C2CCCC1c1ccccc12` [Compound 26, 12-[(2S)-Butan-2-yl]-12-azatricyclo[6.3.1.0^2,7]dodeca-2,4,6-triene hydrochloride], the minimal effective dose fell in the range of 1 to 10 mg/kg, the “AD: antidepressant (percent probability)” value is given as “++++ (50% ≤ X < 100%)”, the “AG: analgesic (percent probability)” value is given as “+ (LOQ ≤ X < 5%)” and the “AP: antipsychotic (percent probability)” value was “+ (LOQ ≤ X < 5%)”. The “AX: anxiolytic (percent probability)” value is on record as “+ (LOQ ≤ X < 5%)”, the “CE: cognitive enhancer (percent probability)” value is listed as “+ (LOQ ≤ X < 5%)”, the “HA: hallucinogenic (percent probability)” value is given as “++ (5% ≤ X < 25%)” and the “MS … (percent probability)” value is reported as “+ (LOQ ≤ X < 5%)”. The “PS (percent probability)” value was “++ (5% ≤ X < 25%)”, the “SD … (percent probability)” value was “+ (LOQ ≤ X < 5%)”, the “SE: side effects (percent probability)” value is reported as “+ (LOQ ≤ X < 5%)” and the “UN … (percent probability)” value was “+ (LOQ ≤ X < 5%)”. The “XG: anxiogenic (percent probability)” value is reported as “+ (LOQ ≤ X < 5%)”.

As to `CC(C)N1C2CCC(O)C1c1ccccc12` (stereo not drawn) [Compound 27, 12-(propan-2-yl)-12-azatricyclo[6.3.1.0^2,7]dodeca-2,4,6-trien-9-ol hydrochloride], the minimal effective dose fell in the range of 10 to 30 mg/kg, the “AD: antidepressant (percent probability)” value is “+++ (25% ≤ X < 50%)”, the “AG: analgesic (percent probability)” value was “++ (5% ≤ X < 25%)” and the “AP: antipsychotic (percent probability)” value was “+ (LOQ ≤ X < 5%)”. The “AX: anxiolytic (percent probability)” value was “++ (5% ≤ X < 25%)”, the “CE: cognitive enhancer (percent probability)” value is on record as “+ (LOQ ≤ X < 5%)”, the “HA: hallucinogenic (percent probability)” value is “++ (5% ≤ X < 25%)” and the “MS … (percent probability)” value is reported as “+ (LOQ ≤ X < 5%)”. Further, the “PS (percent probability)” value was “++ (5% ≤ X < 25%)”, the “SD … (percent probability)” value is “+ (LOQ ≤ X < 5%)”, the “SE: side effects (percent probability)” value is “+ (LOQ ≤ X < 5%)” and the “UN … (percent probability)” value is recorded as “+ (LOQ ≤ X < 5%)”. In addition, the “XG: anxiogenic (percent probability)” value was “+ (LOQ ≤ X < 5%)”.
